Assay results published in patent publication US20240239801A1, “PYRIMIDO[5,4,D]PYRIMIDINE COMPOUNDS, COMPOSITIONS COMPRISING THEM AND USES THEREOF” (Université de Montréal, priority 2021, published 2024).
Read-outs that look alike come from different tables or passages of the source.

How the values were obtained:
BRAF = target: T1, BRAF (Homo sapiens, UniProt P15056); test: BRAF kinase activity assay (ADP-Glo); type: biochemical
T1 construct: GST; purchased Millipore Sigma B4062-10UG
Experimental: (§1) Compound preparation: solid samples of each substances in 1dram vials were suspended in DMSO (Fisher Scientific) at a stock concentration of 20 mM. Stocks were kept at −20° C. and protected from light. If solubility of the compound at 20 mM appeared to be an issue, the initial concentration of the DMSO stock was changed to 10 mM or 5 mM.
(§2) In vitro enzymatic reactions were used for evaluating compounds intrinsic activity against BRAF, CRAF and ARAF. For BRAF and CRAF, 0.375 nM of purified GST-tagged kinases (cat #B4062-10UG and cat #R1656-10UG respectively from Millipore Sigma) were incubated with 75 nM of kinase-dead MEK1 substrate (cat #40075; BPS Bioscience) in the presence of 10 μM of Ultrapure ATP (cat #V9102; Promega; part V915A) with and without the test compound in a buffer containing 50 mM HEPES pH 7.5, 10 mM MgCl2, 1 mM EDTA, 0.01% Brij-35 and 2 mM DTT. Separate reactions were performed with the MEK1 substrate and ATP as a blank control. ARAF, kinase reactions were rigorously the same with the exception that kinase concentration was raised to 3.75 nM (cat #1768-0000-1; Reaction Biology).
(§3) For compound treatment, 5 μL/well of test substance solution are placed in a 384-well proxyplate (Perkin Elmer) and mixed with 2× concentrated kinase reactions. The dilution series is selected so that nine concentrations cover a range from 100 nM to 0.01 nM. […] The final concentration of DMSO in the assay is set at 0.05%.
(§4) BRAF and CRAF kinase reactions were carried out for a total of 2 hours at 30° C. and then stopped by ½ dilution in ADP-Glo Reagent (cat #V9102; Promega; part V912C). Reactions were then incubated for 1 h at room temperature before addition of one volume of Kinase Detection Reagent (cat #V9102; Promega; part V917A). Plates were then equilibrated at room temperature for 30 minutes before detection of luminescence on a Synergy Neo2 plate reader (Biotek). The effect of each compound dilution on BRAF and CRAF kinase activity was expressed as % inhibition and calculated as follows. First, the internal 100% inhibition control (average of luminescence in kinase reactions comprising kinase dead MEK1 substrate alone) was subtracted from each data point. The average of DMSO (vehicle) controls (set as 0% inhibition) was established and used to calculate % inhibition:
(§5) IC50 values were obtained by plotting the kinase inhibition values and fitting the dose-activity curves using a log(agonist) versus response−variable slope (four parameters) function using either GraphPadPrism (V7.0) or Dotmatics Screening Ultra platform. Standards included in the ARAF kinase assay were Belvarafenib (MedChem Express cat #HY-109080; CAS #1446113-23-0), LXH254 (MedChem Express cat #HY-112089; CAS #1800398-38-2) and BGB283 (cat #HY-18957; CAS #1446090-79-4).

HCT116 pERK = test: Phospho-ERK inhibition, AlphaLISA SureFire Ultra p-ERK 1/2; type: cell-based, human; settings: for HCT116 (Ymin %): lowest value of the pERK IC50 curve; for HCT116 pERK % Ymin (lowest value of the IC50 curve): value in brackets, Ymin above −20% = minimal or no paradoxical induction
Experimental: (§6) All cancer cell lines (A375, A101D, A2058, RKO, HT29 SK-MEL 30, IPC298, HepG2, HCT-116, Lovo, SW620, SW480, NCI-H358, NCI-H2122, Calu-6, NCIH2087, NCIH1755, NCIH1666 and Mewo) were obtained from ATCC and cultured in RPMI-1640 medium (Gibco) supplemented with 5% heat inactivated fetal bovine serum (FBS, Wisent) at 37° C. under 5% CO2. Cells were maintained in T175 flasks (Greiner). They were passaged by removing the culture medium, washing once in 10 mL of room temperature Phosphate Buffered Saline (PBS; Wisent) and incubating at 37° C. with 2 mL of 0.05% Trypsin (Thermo-Fisher). Trypsin was then inactivated by adding complete growth medium and the cells were then replated in a T175 culture dish at the appropriate dilution. All cell lines were routinely tested for mycoplasma contamination. Tissue type and mutational status of each cell line can be found in Table B.
(§7) AlphaLISA® SureFire® Ultra™ p-ERK ½ (Thr202/Tyr204) analysis was conducted on cells plated in 100 μL of complete RPMI-1640 growth medium in 96-well flat-bottomed transparent dishes (Costar) at a density indicated in Table C. Cells were maintained overnight at 37° C. under 5% CO2 before treatment with compounds' dilution series for one hour. The cell density in cells/cm^2 corresponds to cell number divided by the area of one well of a 96-well plate ([…]).
(§8) In a dilution series 100 μL/well of test substance dilution prepared in complete RPMI-1640 growth media was added to the cells. The dilution series is selected so that ten concentrations cover a range from 30 μM or 10 μM to 0.33 nM. If necessary, the initial concentration of 10 μM is increased to 100 μM or lowered to 1 μM (as in the case of A375 and NCIH1666 cells, which are generally more sensitive to the compounds) and further dilution is carried out accordingly. The final concentration of DMSO in the assay is set at 0.5%.
(§9) After treatment, media was removed, and cells were lysed in 50 μL of 1× AlphaScreen Ultra Lysis Buffer (Perkin Elmer). The AlphaLISA® SureFire® Ultra™ p-ERK ½ (Thr202/Tyr2O4) (PerkinElmer) reactions were performed with 5 μL of cell lysate according to the manufacturer's specifications in 384-well proxyplates (Perkin Elmer) followed by overnight incubation of the reactions at room temperature in a humidified chamber. After completion of the reactions, the signals were recorded on an EnVision plate reader (Perkin Elmer) using built in AlphaLISA® settings.
(§10) The effect of each compound dilution on the pERK signal was expressed in % inhibition and calculated as follows. An internal 100% inhibition control (1 μM trametinib, cat. No. HY-10999; MedChem Express; CAS No. 871700-17-3) was included in each plate and used as a measure of pERK background. First, the value obtained for trametinib was subtracted from each data point. The average of DMSO (vehicle) controls (set as 0% inhibition) was established and used to calculate % inhibition:
(§11) The ability of each compound to inhibit pERK signal was expressed as an IC50 value obtained by plotting the inhibition values for each data point of a dilution series and fitting the obtained curves using a log(agonist) versus response−variable slope (four parameters) function using GraphPadPrism (V7.0).
(§12) When present, paradoxical pERK induction is inferred from the negative % inhibition values observed in the pERK IC50 curves of a compound.

CRAF = CRAF (Homo sapiens, UniProt P04049); test: CRAF kinase activity assay (ADP-Glo); type: biochemical
Chain of CRAF (P04049 whole entry): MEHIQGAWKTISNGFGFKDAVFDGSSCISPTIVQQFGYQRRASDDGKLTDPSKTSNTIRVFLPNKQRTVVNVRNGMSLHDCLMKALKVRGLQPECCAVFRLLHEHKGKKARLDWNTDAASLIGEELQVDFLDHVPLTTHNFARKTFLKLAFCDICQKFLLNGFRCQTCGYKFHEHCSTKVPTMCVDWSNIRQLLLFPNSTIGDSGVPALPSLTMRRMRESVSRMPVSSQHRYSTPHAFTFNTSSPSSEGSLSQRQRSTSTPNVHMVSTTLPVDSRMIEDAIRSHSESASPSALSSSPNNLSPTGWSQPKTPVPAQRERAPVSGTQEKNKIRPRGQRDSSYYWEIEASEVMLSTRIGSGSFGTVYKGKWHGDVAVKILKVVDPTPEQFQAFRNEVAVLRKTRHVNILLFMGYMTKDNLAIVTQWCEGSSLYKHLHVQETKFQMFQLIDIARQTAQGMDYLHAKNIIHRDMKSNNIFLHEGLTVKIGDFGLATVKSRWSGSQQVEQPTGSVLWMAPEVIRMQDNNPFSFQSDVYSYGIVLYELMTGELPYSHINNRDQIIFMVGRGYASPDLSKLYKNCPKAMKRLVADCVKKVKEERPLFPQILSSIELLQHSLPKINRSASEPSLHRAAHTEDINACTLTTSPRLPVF
Experimental: as §1, §2, §3, §4, §5

SW480 pERK = test: Phospho-ERK inhibition, AlphaLISA SureFire Ultra p-ERK 1/2; type: cell-based, human; settings: for IC50: 1 h treatment; for SW480 (Ymin %): lowest value of the pERK IC50 curve
Experimental: as §6, §7, §8, §9, §10, §11, §12

[1] = Table 3, read-out: SW480 PERK IC50
[2] = Table 2, read-out: SW480 PERK IC50 (UM)

T1 sequence (P15056 whole entry): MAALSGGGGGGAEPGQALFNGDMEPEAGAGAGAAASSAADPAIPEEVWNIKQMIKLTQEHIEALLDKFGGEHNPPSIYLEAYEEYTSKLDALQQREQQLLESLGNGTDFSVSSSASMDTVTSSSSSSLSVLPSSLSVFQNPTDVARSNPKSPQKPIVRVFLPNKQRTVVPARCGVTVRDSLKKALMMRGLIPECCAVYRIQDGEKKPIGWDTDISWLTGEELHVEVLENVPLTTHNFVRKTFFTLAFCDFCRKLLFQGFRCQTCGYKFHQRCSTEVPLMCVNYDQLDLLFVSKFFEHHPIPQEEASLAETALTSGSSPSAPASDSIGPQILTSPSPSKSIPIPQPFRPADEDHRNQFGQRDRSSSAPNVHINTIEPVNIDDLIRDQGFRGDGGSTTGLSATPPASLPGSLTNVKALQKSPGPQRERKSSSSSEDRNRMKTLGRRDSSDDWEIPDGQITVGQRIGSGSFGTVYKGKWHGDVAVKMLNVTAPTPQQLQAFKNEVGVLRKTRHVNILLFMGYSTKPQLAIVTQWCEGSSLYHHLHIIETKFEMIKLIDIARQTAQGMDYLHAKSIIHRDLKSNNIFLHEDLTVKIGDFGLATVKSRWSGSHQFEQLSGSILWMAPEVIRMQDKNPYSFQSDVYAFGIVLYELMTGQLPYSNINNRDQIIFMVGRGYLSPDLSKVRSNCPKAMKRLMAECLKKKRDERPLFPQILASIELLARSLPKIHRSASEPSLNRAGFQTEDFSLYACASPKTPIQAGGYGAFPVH

Row | SMILES | IC50 (BRAF; Table 3) | IC50 (HCT116 pERK; Table 3, 1 h treatment) | IC50 (CRAF; Table 3) | HCT116 (Ymin %) (HCT116 pERK; Table 3) | further results
1 | O=S(=O)(Nc1cc(F)c(F)c(Nc2ncnc3cnc(-n4nnc5ccccc54)nc23)c1F)c1cccc(Cl)c1Cl [Example 161] |  |  |  |  | IC50 (BRAF; BRAF biochemical kinase assay): 1 to 10 nM; IC50 (HCT116 pERK; HCT116 cells, pERK): 1000 to 10000 nM; HCT116 pERK % Ymin (lowest value of the IC50 curve) (HCT116 pERK; HCT116 cells): −2.7%; IC50 (CRAF; CRAF biochemical kinase assay): < 10 nM
2 | COc1ccc(S(=O)(=O)Nc2ccc(F)c(Nc3ncnc4cnc(SC)nc34)c2F)c(C)c1Cl [Example 92] |  |  |  |  | IC50 (BRAF; Table 2): 1 to 10 nM; IC50 (HCT116 pERK; Table 2, 1 h treatment): 1000 to 10000 nM; HCT116 (Ymin %) (HCT116 pERK; Table 2): −12%
3 | COc1ccc(S(=O)(=O)Nc2ccc(F)c(Nc3ncnc4cnc(-n5nnc6ccccc65)nc34)c2F)c(C)c1Cl [Example 117] | > 10 nM | 1000 to 10000 nM | 10 to 50 nM | −1% | 
4 | O=S(=O)(Nc1cc(F)c(F)c(Nc2ncnc3cnc(-n4cnc5ccccc54)nc23)c1F)c1cccc(Cl)c1Cl [Example 160] |  |  |  |  | IC50 (BRAF; BRAF biochemical kinase assay): 1 to 10 nM; IC50 (HCT116 pERK; HCT116 cells, pERK): < 500 nM; HCT116 pERK % Ymin (lowest value of the IC50 curve) (HCT116 pERK; HCT116 cells): −9%; IC50 (CRAF; CRAF biochemical kinase assay): < 10 nM
5 | CSc1ncc2ncnc(Nc3c(F)ccc(NS(=O)(=O)c4cccc(F)c4C)c3F)c2n1 [Example 90] |  |  |  |  | IC50 (BRAF; Table 2): 1 to 10 nM; IC50 (HCT116 pERK; Homo sapiens, HCT-116, Table 2, 1 h treatment): 1000 to 10000 nM
6 | Cc1c(F)cccc1S(=O)(=O)Nc1ccc(F)c(Nc2ncnc3cnc(-n4nc(C(=O)N5CCC(O)CC5)c5ccccc54)nc23)c1F [Example 108] |  | 1000 to 10000 nM | 10 to 50 nM | −7.0% | 
7 | COc1ccc(S(=O)(=O)Nc2ccc(F)c(Nc3ncnc4cnc(N5CC[C@H](F)C5)nc34)c2F)cc1 [Example 31] |  | 1000 to 10000 nM |  | 13% | IC50 (SW480 pERK; [1]): 1000 to 10000 nM; SW480 (Ymin %) (SW480 pERK; Table 3): 11%
8 | CSc1ncc2ncnc(Nc3c(F)ccc(NS(=O)(=O)c4ccc(Br)cc4C)c3F)c2n1 [Example 17] |  |  |  |  | IC50 (SW480 pERK; [2]): 1000 to 10000 nM; SW480 (Ymin %) (SW480 pERK; Table 2): 3%; IC50 (HCT116 pERK; Table 2, 1 h treatment): 10000 to 30000 nM; HCT116 (Ymin %) (HCT116 pERK; Table 2): 5%
9 | O=S(=O)(Nc1ccc(F)c(Nc2ncnc3cnc(N4CC[C@H](F)C4)nc23)c1F)c1ccc(Cl)cc1Cl [Example 61] |  | 1000 to 10000 nM |  | 11% | IC50 (SW480 pERK; [1]): 1000 to 10000 nM; SW480 (Ymin %) (SW480 pERK; Table 3): 9%
10 | CSc1ncc2ncnc(Nc3c(F)ccc(NS(=O)(=O)c4ccc(C)cc4)c3F)c2n1 [Example 18] |  |  |  |  | IC50 (SW480 pERK; [2]): 1000 to 10000 nM; SW480 (Ymin %) (SW480 pERK; Table 2): 11%; IC50 (HCT116 pERK; Table 2, 1 h treatment): 10000 to 30000 nM; HCT116 (Ymin %) (HCT116 pERK; Table 2): 4%

Continued, in another order:

Row | IC50 (BRAF; Table 3) | IC50 (HCT116 pERK; Table 3, 1 h treatment) | IC50 (CRAF; Table 3) | SMILES | HCT116 (Ymin %) (HCT116 pERK; Table 3) | further results
11 | 1 to 10 nM | < 500 nM | < 10 nM | CCC1(O)CCN(c2cccc3c2ncn3-c2ncc3ncnc(Nc4c(F)ccc(NS(=O)(=O)c5cccc(Cl)c5C(F)(F)F)c4F)c3n2)CC1 [Example 158] | −1% | 
12 | > 10 nM | < 500 nM | 10 to 50 nM | O=S(=O)(Nc1ccc(F)c(Nc2ncnc3cnc(-n4cnc5c(N6CC(CF)C6)cccc54)nc23)c1F)c1cccc(Cl)c1Cl [Example 140] | −16% | 
13 | < 1 nM | < 500 nM | 10 to 50 nM | Cc1c(F)cccc1S(=O)(=O)Nc1ccc(F)c(Nc2ncnc3cnc(-n4cc(C(=O)N5CCOCC5)c5ccccc54)nc23)c1F [Example 100] | 2.2% | 
14 | > 10 nM | < 500 nM | 10 to 50 nM | CCc1ccccc1S(=O)(=O)Nc1ccc(F)c(Nc2ncnc3cnc(-n4cnc5c(N6CCC(O)(CC)CC6)cccc54)nc23)c1F [Example 149] | 4% | 
15 | 1 to 10 nM | < 500 nM | 10 to 50 nM | CCC1(O)CCN(c2cccc3c2ncn3-c2ncc3ncnc(Nc4c(F)ccc(NS(=O)(=O)c5cccc6c5OC(F)(F)O6)c4F)c3n2)CC1 [Example 151] | 10% | 
16 | 1 to 10 nM | < 500 nM | < 10 nM | Cc1c(Cl)cccc1S(=O)(=O)Nc1ccc(F)c(Nc2ncnc3cnc(-n4cnc5ccccc54)nc23)c1F [Example 127] | 0% | 
17 | 1 to 10 nM | 500 to 1000 nM | 10 to 50 nM | Cc1c(F)cccc1S(=O)(=O)Nc1ccc(F)c(Nc2ncnc3cnc(-n4cc(S(=O)(=O)N(C)Cc5ccncc5)c5ccccc54)nc23)c1F [Example 113] | −7.0% | 
18 | 1 to 10 nM | < 500 nM | 10 to 50 nM | CCS(=O)(=O)c1cn(-c2ncc3ncnc(Nc4c(F)ccc(NS(=O)(=O)c5cccc(Cl)c5Cl)c4F)c3n2)c2ccccc12 [Example 141] | −3% | 
19 | 1 to 10 nM | < 500 nM | > 50 nM | COc1ccc(S(=O)(=O)Nc2ccc(F)c(Nc3ncnc4cnc(-n5cnc6ccccc65)nc34)c2F)c(C)c1F [Example 116] | −1% | 
20 | 1 to 10 nM | < 500 nM | 10 to 50 nM | COC1CCN(c2cccc3c2ncn3-c2ncc3ncnc(Nc4c(F)ccc(NS(=O)(=O)c5cccc(Cl)c5Cl)c4F)c3n2)CC1 [Example 131] | −4% | 
21 | 1 to 10 nM | < 500 nM | 10 to 50 nM | O=S(=O)(Nc1ccc(F)c(Nc2ncnc3cnc(-n4cnc5c(N6CC(CCO)C6)cccc54)nc23)c1F)c1cccc(Cl)c1Cl [Example 147] | −9% | 
22 | 1 to 10 nM | < 500 nM | < 10 nM | Nc1cccc2c1nnn2-c1ncc2ncnc(Nc3c(F)ccc(NS(=O)(=O)c4cccc(Cl)c4Cl)c3F)c2n1 [Example 94] | 7.7% | 
